Experimental findings from ChEMBL document CHEMBL4330055, “Development of Inhibitors of the Programmed Cell Death-1/Programmed Cell Death-Ligand 1 Signaling Pathway” (J Med Chem, 2019) are described below.

Where a SMILES comes first, the peptide text is derived from it. Bridges are numbered along the chain shown (N, C = ends).

Programmed cell death 1 ligand 1 (Mus musculus), sequence (Q9EP73 whole entry): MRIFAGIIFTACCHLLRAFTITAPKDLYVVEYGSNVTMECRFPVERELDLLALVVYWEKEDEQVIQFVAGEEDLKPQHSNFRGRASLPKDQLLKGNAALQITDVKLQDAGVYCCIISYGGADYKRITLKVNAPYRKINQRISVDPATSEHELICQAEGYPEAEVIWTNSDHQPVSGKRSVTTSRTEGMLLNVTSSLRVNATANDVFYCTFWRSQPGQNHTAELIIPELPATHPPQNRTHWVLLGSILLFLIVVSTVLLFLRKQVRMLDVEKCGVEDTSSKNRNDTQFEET

One assay concerns the target Programmed cell death 1 ligand 1 (Mus musculus) (UniProt Q9EP73). Nature of the assay: Inhibition of PDL1 in C57BL6 mouse splenocytes assessed as protection against ant-CD3/CD28-stimulated cell proliferation at 100 nM after 4 hrs by CFSE-based FACS analysis relative to control. Background: Flow cytometry measures light scatter and fluorescence of single cells or particles in a stream.
One may read the inhibition as how much of the control response was suppressed. With `C[C@@H](O)[C@@H]1NC(=O)N[C@@H](C(N)=O)C(=O)NNC(=O)[C@@H](CO)NC(=O)COCCOCCNC1=O`, the inhibition is 95%.

Consider `NC(=O)C[C@H](NC(=O)[C@@H]1C[C@H](O)CN1)c1nc(N2CCCC2)no1`, for which the inhibition is 91%.

In the case of `C[C@@H](O)[C@H](N)c1noc([C@H](Cc2ccc(O)cc2)NC(=O)N2CCC[C@H]2C(=O)O)n1`, the inhibition is 99%. `C[C@@H](O)[C@@H]1NC(=O)COCCOCCNC(=O)[C@@H](CO)NC(=O)N[C@H](C(N)=O)C(=O)NNC1=O`: the inhibition is 94%.

As for `NCCCC[C@H](NC(=O)N[C@@H](CC(N)=O)C(=O)NNC(=O)[C@@H](N)CO)C(=O)O`, the inhibition came to 87%.

For `C[C@@H](O)[C@H](N)c1nnc([C@H](CCC(N)=O)NC(=O)N[C@@H](CO)C(=O)O)o1`, the inhibition was found to be 92%.

For the molecule `COCCNC(=O)CC[C@H](NS(=O)(=O)C1CC1)c1nnc(-c2ccccc2OC)o1`, the inhibition was 97%. With `C[C@@H](O)C(NC(=O)[C@H](CCC(=O)O)NC(=O)[C@@H](N)CO)C(=O)N[C@H](CO)C(=O)N[C@H](CCCCN)C(=O)N[C@H](CO)CN[C@H](Cc1ccccc1)C(N)=O` (single isomer, unassigned), the inhibition was 81%.

With `C[C@@H](O)[C@@H](NC(=O)N[C@@H](CC(N)=O)c1nc([C@@H](N)CO)no1)C(=O)O`, the inhibition was 97%. With `C[C@@H](O)[C@@H]1C(=O)N[C@H](CO)C(=O)N[C@H](C(=O)N[C@@H](CO)C(=O)N[C@@H](Cc2ccccc2)C(N)=O)CCCCNC(=O)CC[C@H](NC(=O)[C@@H](N)CO)C(=O)N1C`, the inhibition was found to be 82%.

The next assay addresses T1, V-type immunoglobulin domain-containing suppressor of T-cell activation (Homo sapiens) (UniProt Q9H7M9).
T1 sequence (whole entry): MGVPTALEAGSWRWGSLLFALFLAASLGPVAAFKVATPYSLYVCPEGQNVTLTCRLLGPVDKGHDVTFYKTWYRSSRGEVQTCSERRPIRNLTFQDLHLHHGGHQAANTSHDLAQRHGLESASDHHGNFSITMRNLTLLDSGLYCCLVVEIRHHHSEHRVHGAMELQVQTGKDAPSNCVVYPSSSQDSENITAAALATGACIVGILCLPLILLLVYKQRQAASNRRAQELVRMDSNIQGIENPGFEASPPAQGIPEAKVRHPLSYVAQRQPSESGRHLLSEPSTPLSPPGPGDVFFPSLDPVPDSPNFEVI
Nature of the assay: Inhibition of VISTA signaling in human PBMC assessed as IFNgamma release at 100 nM after 30 mins by ELISA. For orientation: In an ELISA, binding on a coated surface is turned into a signal by an enzyme label.
Regarding `C[C@@H](O)[C@H](NC(=O)N[C@@H](CC(N)=O)c1nc([C@@H](N)Cc2ccccc2)no1)C(=O)O`, the inhibition was found to be 99%. On to `C[C@@H](O)[C@@H](NC(=O)N[C@@H](CC(N)=O)c1nc([C@@H](N)CO)no1)C(=O)O`, for which the inhibition was greater than 70%.

The target of the next assay is T2, Programmed cell death 1 ligand 1 (Homo sapiens, UniProt Q9NZQ7). Nature of the assay: Binding affinity to Fc-labeled human PDL1 expressed in Escherichia coli by SPR spectroscopy. (In general: In SPR one partner is held on a chip, and binding of the other changes the refractive index at the surface.)
T2 sequence (Q9NZQ7 whole entry): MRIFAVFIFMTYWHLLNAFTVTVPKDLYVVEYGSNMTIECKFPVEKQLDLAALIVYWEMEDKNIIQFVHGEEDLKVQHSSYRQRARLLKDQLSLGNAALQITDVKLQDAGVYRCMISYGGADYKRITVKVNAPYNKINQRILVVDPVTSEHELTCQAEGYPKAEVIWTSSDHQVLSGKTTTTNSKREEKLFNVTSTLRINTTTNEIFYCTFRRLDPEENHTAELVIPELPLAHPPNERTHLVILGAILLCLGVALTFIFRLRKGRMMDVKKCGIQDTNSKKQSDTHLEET
What is called Kd is the constant that tells how readily two partners part at equilibrium. Low readings indicate tighter binding, high ones weaker binding. As for H-KHAHHTHNLRLP-OH, the Kd worked out at 1130 nM. Consider H-MRNRERYPKPYY-OH, for which the Kd is 22000 nM. In turn, `C[C@@H](O)[C@H](NC(=O)[C@@H]1CCCN1C(=O)[C@H](CCCCN)NC(=O)[C@H](CO)NC(=O)[C@H](Cc1ccc(O)cc1)NC(=O)[C@@H](N)CC(N)=O)C(=O)N[C@@H](CC(=O)O)C(=O)N[C@@H](CCCNC(=N)N)C(=O)N[C@@H](CCC(N)=O)C(=O)N[C@@H](Cc1ccc(O)cc1)C(=O)N[C@@H](Cc1cnc[nH]1)C(=O)N[C@@H](Cc1ccccc1)C(=O)O` showed a Kd of 510 nM.

The next assay deals with T2, Programmed cell death 1 ligand 1. Nature of the assay: Binding affinity to biotinylated PDL1 (unknown origin) expressed in Escherichia coli OmpX membrane after 45 mins by SAPE-fluorescence based flow cytometry. Type of assay: cell membranes.
`C[C@H](NC(=O)[C@H](Cc1ccc(O)cc1)NC(=O)[C@H](CCC(N)=O)NC(=O)CNC(=O)[C@@H](N)CO)C(=O)N[C@@H](CO)C(=O)N[C@@H](Cc1ccc(O)cc1)C(=O)N[C@@H](Cc1cnc[nH]1)C(=O)N[C@@H](CS)C(=O)N[C@@H](Cc1c[nH]c2ccccc12)C(=O)N[C@@H](CS)C(=O)N[C@@H](Cc1c[nH]c2ccccc12)C(=O)N[C@@H](CCCNC(=N)N)C(=O)N[C@@H](CC(=O)O)C(=O)N1CCC[C@H]1C(=O)NCC(=O)N[C@@H](CCCNC(=N)N)C(=O)N[C@@H](CO)C(=O)NCC(=O)NCC(=O)N[C@@H](CO)C(=O)N[C@@H](CCCCN)C(=O)O` (H-SGQYASYHCWCWRDPGRSGGSK-OH) returned a Kd of 94 nM.

In another assay the target is T3, Programmed cell death protein 1/Programmed cell death 1 ligand 1 (Homo sapiens, UniProt Q15116+Q9NZQ7). Nature of the assay: Inhibition of PD1/PDL1 (unknown origin) interaction at 10 uM after 15 mins by HTRF assay relative to control. Type of assay: protein-complex assay.
T3 sequence (Q15116 whole entry): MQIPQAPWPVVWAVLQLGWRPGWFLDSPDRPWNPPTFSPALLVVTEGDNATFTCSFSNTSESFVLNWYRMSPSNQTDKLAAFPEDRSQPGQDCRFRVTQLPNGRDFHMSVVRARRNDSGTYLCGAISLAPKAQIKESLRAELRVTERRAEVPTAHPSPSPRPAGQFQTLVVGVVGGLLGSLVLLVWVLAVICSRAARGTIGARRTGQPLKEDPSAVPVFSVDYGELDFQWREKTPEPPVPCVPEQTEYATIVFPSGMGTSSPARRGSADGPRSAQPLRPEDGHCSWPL
T3 sequence (Q9NZQ7 whole entry): as the sequence (Q9NZQ7 whole entry) above
The molecule `COc1ccc(Nc2cc(C(=O)Nc3ccc(Oc4ccccc4)cc3)ccn2)cc1` gave an inhibition of 36%.

A further assay concerns the target T3, Programmed cell death protein 1/Programmed cell death 1 ligand 1. Nature of the assay: Inhibition of PD1/PDL1 (unknown origin) at 500 uM after 15 mins by HTRF assay relative to control. The format is protein-complex assay.
Regarding `CN(C)CCOc1ccc([N+](=O)[O-])c(OC(=O)N(C)C)c1`, the inhibition is 43%.

Another assay shares this target. Nature of the assay: Inhibition of PD1/PDL1 interaction in human jurkat cells co-expressing TCR promoter assessed as TCR activation by luciferase reporter gene assay. Type of assay: cell-based.
Usually EC50 stands for the concentration that produces a half-maximal response. As to `CC[C@H](C)[C@@H]1NC(=O)[C@H](CC(C)C)NC(=O)[C@H](Cc2ccccc2)NC(=O)CSC[C@@H](C(=O)NCC(N)=O)NC(=O)[C@H](CCCNC(=N)N)NC(=O)[C@H](Cc2ccccc2)NC(=O)[C@H](C(C)C)NC(=O)[C@H](CCCNC(=N)N)NC(=O)[C@H](CC(=O)O)NC(=O)[C@H](CCCNC(=N)N)NC(=O)[C@H]([C@@H](C)CC)NC(=O)[C@H](C(C)C)NC1=O` ({CH2CO}-FLIVIRDRVFRCG-NH2; thioether N-12), the concentration giving a half-maximal response (EC50) was determined as 6300 nM.

The target is the same in another assay. Nature of the assay: Inhibition of recombinant human PD1 (25 to 167 residues)/human PDL1 (19 to 238 residues) interaction after 40 mins by HTRF assay. The format is protein-complex assay.
What is called IC50 is the concentration that gives 50% inhibition. `N#Cc1c(Nc2nccc3cc(CNCCO)cnc23)cccc1C1=CCCCC1`: the IC50 was no more than 100 nM. The same measure, in the same setting: the value for `Cc1cc(C(=O)Nc2cccc(-c3ccccc3)c2C)ncc1CNCCO` was no more than 100 nM; that for `Cc1c(-c2ccccc2)cccc1-n1cc2c(n1)CNCC2` was no more than 100 nM. Consider `N#Cc1c(-c2ccc3c(c2)OCCO3)cccc1N1CCC(NC2CCCOC2)CC1` (configuration not stated), for which the IC50 is no more than 100 nM. For `COc1cc2oc(-c3cccc(-c4ccccc4)c3C)nc2cc1CNCCO`, the IC50 was no more than 100 nM. In the case of `Cc1c(-c2ccccc2)cccc1-c1cc2ccc(CNCCO)cn2n1`, the IC50 is no more than 100 nM. Take `N#Cc1c(NC(=O)c2nc3c(s2)CNCC3)cccc1-c1ccc2c(c1)OCC2`: the IC50 is no more than 100 nM.

For a further assay the target is unchanged. Nature of the assay: Inhibition of PD1/PDL1 (unknown origin) interaction by HTRF assay. Type of assay: protein-complex assay.
Molecule `Cc1c(/C=C/c2ncc(CNC(CO)C(=O)O)cc2C(F)(F)F)cccc1-c1ccc2c(c1)OCCO2` (configuration not stated) came in with an IC50 of 36 nM.
